pIC50: −log10 of the molar value.

This assay has as its system HT29 cells. Put plainly: Inhibition of cell necrosis (CCK8 method), induced programmed necrosis of HT29 cells. The format is cell-based. Particulars: Homo sapiens, HT-29; rescue from necrosis induced by TNF-α 20 ng/mL, AT-406 1 μM, Z-VAD-FMK 20 μM; 16-20 hours; CCK-8, OD 450 nm. Summed up:
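HT29 cells in McCOY's 5A with 10% FBS were pre-treated for 30 min with compound (9 fourfold steps, 25000 to 0.38 nM final, 0.25% DMSO). Necrosis was then induced with TNF-α 20 ng/mL, AT-406 1 μM and Z-VAD-FMK 20 μM for 16-20 h. Viability was read by CCK-8 OD450, normalized between uninduced and induced wells, and IC50 was curve-fitted.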
Compound `Cc1ccc(OCCCC(C)(C)O)cc1-c1ccnc(NC(=O)c2nnc(Cc3cc(Cl)ccc3F)[nH]2)c1` [Example 204, 5-(5-chloro-2-fluorobenzyl)-N-(4-(5-((4-hydroxy-4-methylpentyl)oxy)-2-methylphenyl)pyridin-2-yl)-4H-1,2,4-triazole-3-carboxamide] gave a pIC50 of at least 7.00. Then `Cc1ccc(OCCCC(C)(C)O)cc1-c1ccnc(NC(=O)c2nnc(Cc3cc(F)cc(Cl)c3)[nH]2)c1` [Example 205, 5-(5-chloro-3-fluorobenzyl)-N-(4-(5-((4-hydroxy-4-methylpentyl)oxy)-2-methylphenyl)pyridin-2-yl)-4H-1,2,4-triazole-3-carboxamide], with 6.00 to 7.00.

With `Cc1ccc(OCCCC(C)(C)O)cc1-c1ccnc(NC(=O)c2nnc(Cc3ccc(F)c(Cl)c3)[nH]2)c1` [Example 206, 5-(3-chloro-4-fluorobenzyl)-N-(4-(5-((4-hydroxy-4-methylpentyl)oxy)-2-methylphenyl)pyridin-2-yl)-4H-1,2,4-triazole-3-carboxamide], the pIC50 is 6.00 to 7.00. Then `Cc1cc(F)cc(Cc2nnc(C(=O)Nc3cc(-c4cc(OCCCC(C)(C)O)ccc4C)ccn3)[nH]2)c1` [Example 207, 5-(3-fluoro-5-methylbenzyl)-N-(4-(5-((4-hydroxy-4-methylpentyl)oxy)-2-methylphenyl)pyridin-2-yl)-4H-1,2,4-triazole-3-carboxamide], with 6.00 to 7.00; and `Cc1cc(Cc2nnc(C(=O)Nc3cc(-c4cc(OCCCC(C)(C)O)ccc4C)ccn3)[nH]2)ccc1F` [Example 208, 5-(4-fluoro-3-methylbenzyl)-N-(4-(5-((4-hydroxy-4-methylpentyl)oxy)-2-methylphenyl)pyridin-2-yl)-4H-1,2,4-triazole-3-carboxamide], with 6.00 to 7.00. Then `COc1cc(Cc2nnc(C(=O)Nc3cc(-c4cc(OCCCC(C)(C)O)ccc4C)ccn3)[nH]2)ccc1F` [Example 209, 5-(4-fluoro-3-methoxybenzyl)-N-(4-(5-((4-hydroxy-4-methylpentyl)oxy)-2-methylphenyl)pyridin-2-yl)-4H-1,2,4-triazole-3-carboxamide], with 6.00 to 7.00; and `Cc1ccc(OCCCC(C)(C)O)cc1-c1ccnc(NC(=O)c2nnc(Cc3cccc(C(F)(F)F)c3F)[nH]2)c1` [Example 210, 5-(2-fluoro-3-trifluoromethylbenzyl)-N-(4-(5-((4-hydroxy-4-methylpentyl)oxy)-2-methylphenyl)pyridin-2-yl)-4H-1,2,4-triazole-3-carboxamide], with 6.00 to 7.00; and `Cc1ccc(OCCCC(C)(C)O)cc1-c1ccnc(NC(=O)c2nnc(Cc3cc(C(F)(F)F)ccc3F)[nH]2)c1` [Example 211, 5-(2-fluoro-5-trifluoromethylbenzyl)-N-(4-(5-((4-hydroxy-4-methylpentyl)oxy)-2-methylphenyl)pyridin-2-yl)-4H-1,2,4-triazole-3-carboxamide], with 6.00 to 7.00.

The compound `Cc1ccc(OCCCC(C)(C)O)cc1-c1ccnc(NC(=O)c2nnc(Cc3ccc(F)c(C(F)(F)F)c3)[nH]2)c1` [Example 212, 5-(4-fluoro-3-trifluoromethylbenzyl)-N-(4-(5-((4-hydroxy-4-methylpentyl)oxy)-2-methylphenyl)pyridin-2-yl)-4H-1,2,4-triazole-3-carboxamide] showed a pIC50 of 6.00 to 7.00. Then `Cc1ccc(OCCCC(C)(C)O)cc1-c1ccnc(NC(=O)c2nnc(Cc3cc(F)cc(C(F)(F)F)c3)[nH]2)c1` [Example 213, 5-(3-fluoro-5-trifluoromethylbenzyl)-N-(4-(5-((4-hydroxy-4-methylpentyl)oxy)-2-methylphenyl)pyridin-2-yl)-4H-1,2,4-triazole-3-carboxamide], with 5.00 to 6.00; and `Cc1ccc(OCCCC(C)(C)O)cc1-c1ccnc(NC(=O)c2nnc(Cc3ccc(F)c(F)c3F)[nH]2)c1` [Example 214, 5-(2,3,4-trifluorobenzyl)-N-(4-(5-((4-hydroxy-4-methylpentyl)oxy)-2-methylphenyl)pyridin-2-yl)-4H-1,2,4-triazole-3-carboxamide], with at least 7.00. Take `Cc1ccc(OCCCC(C)(C)O)cc1-c1ccnc(NC(=O)c2nnc(Cc3cc(F)cc(F)c3F)[nH]2)c1` [Example 215, 5-(2,3,5-trifluorobenzyl)-N-(4-(5-((4-hydroxy-4-methylpentyl)oxy)-2-methylphenyl)pyridin-2-yl)-4H-1,2,4-triazole-3-carboxamide]: the pIC50 is at least 7.00. Turning to `Cc1ccc(OCCCC(C)(C)O)cc1-c1ccnc(NC(=O)c2nnc(Cc3c(F)ccc(F)c3F)[nH]2)c1` [Example 216, 5-(2,3,6-trifluorobenzyl)-N-(4-(5-((4-hydroxy-4-methylpentyl)oxy)-2-methylphenyl)pyridin-2-yl)-4H-1,2,4-triazole-3-carboxamide], the pIC50 is at least 7.00. As for `Cc1ccc(OCCCC(C)(C)O)cc1-c1ccnc(NC(=O)c2nnc(Cc3cc(F)c(F)c(F)c3)[nH]2)c1` [Example 217, 5-(3,4,5-trifluorobenzyl)-N-(4-(5-((4-hydroxy-4-methylpentyl)oxy)-2-methylphenyl)pyridin-2-yl)-4H-1,2,4-triazole-3-carboxamide], the pIC50 is 6.00 to 7.00. The result for `Cc1ccc(OCCCC(C)(C)O)cc1-c1ccnc(NC(=O)c2nnc(Cc3cc(F)c(F)cc3F)[nH]2)c1` [Example 218, 5-(2,4,5-trifluorobenzyl)-N-(4-(5-((4-hydroxy-4-methylpentyl)oxy)-2-methylphenyl)pyridin-2-yl)-4H-1,2,4-triazole-3-carboxamide] reads at least 7.00; that for `Cc1ccc(OCCCC(C)(C)O)cc1-c1ccnc(NC(=O)c2nnc(Cc3ccccn3)[nH]2)c1` [Example 219, N-(4-(5-((4-hydroxy-4-methylpentyl)oxy)-2-methylphenyl)pyridin-2-yl)-5-(pyridin-2-ylmethyl)-4H-1,2,4-triazole-3-carboxamide], at least 7.00. The result for `Cc1ccc(OCCCC(C)(C)O)cc1-c1ccnc(NC(=O)c2nnc(Cc3cccnc3)[nH]2)c1` [Example 220, N-(4-(5-((4-hydroxy-4-methylpentyl)oxy)-2-methylphenyl)pyridin-2-yl)-5-(pyridin-3-ylmethyl)-4H-1,2,4-triazole-3-carboxamide] reads at least 7.00; that for `Cc1ccc(OCCCC(C)(C)O)cc1-c1ccnc(NC(=O)c2nnc(Cc3ccncc3)[nH]2)c1` [Example 221, N-(4-(5-((4-hydroxy-4-methylpentyl)oxy)-2-methylphenyl)pyridin-2-yl)-5-(pyridin-4-ylmethyl)-4H-1,2,4-triazole-3-carboxamide], 6.00 to 7.00; that for `Cc1ccc(OCCCC(C)(C)O)cc1-c1ccnc(NC(=O)c2nnc(CC3CCCCCC3)[nH]2)c1` [Example 222, 5-(cycloheptylmethyl)-N-(4-(5-((4-hydroxy-4-methylpentyl)oxy)-2-methylphenyl)pyridin-2-yl)-4H-1,2,4-triazole-3-carboxamide], at least 7.00. The compound `Cc1ccc(OCCCCC(C)(C)O)cc1-c1ccnc(NC(=O)c2nnc(CC3CCCC3)[nH]2)c1` [Example 223, 5-(cyclopentylmethyl)-N-(4-(5-((5-hydroxyl-5-methylhexyl)oxy)-2-methylphenyl)pyridin-2-yl)-4H-1,2,4-triazole-3-carboxamide] gave a pIC50 of at least 7.00. The result for `Cc1ccc(OCCCCCO)cc1-c1ccnc(NC(=O)c2nnc(CC3CCCC3)[nH]2)c1` [Example 224, 5-(cyclopentylmethyl)-N-(4-(5-((5-hydroxypentyl)oxy)-2-methylphenyl)pyridin-2-yl)-4H-1,2,4-triazole-3-carboxamide] reads at least 7.00.

`Cc1ccc(OCCC2CCCCCC2)cc1-c1ccnc(NC(=O)c2nnc(Cc3ccccc3)[nH]2)c1` [Example 225, 5-benzyl-N-(4-(5-(2-cycloheptylethoxy)-2-methylphenyl)pyridin-2-yl)-4H-1,2,4-triazole-3-carboxamide] showed a pIC50 of at least 7.00. `Cc1ccc(OCCC2CCOCC2)cc1-c1ccnc(NC(=O)c2nnc(Cc3ccccc3F)[nH]2)c1` [Example 226, 5-(2-fluorobenzyl)-N-(4-(2-methyl-5-(2-(tetrahydro-2H-pyran-4-yl)ethoxy)phenyl)pyridin-2-yl)-4H-1,2,4-triazole-3-carboxamide] gave a pIC50 of at least 7.00.

`Cc1ccc(OCCC2CCCCO2)cc1-c1ccnc(NC(=O)c2nnc(Cc3ccccc3)[nH]2)c1` (stereo not shown) [Example 227, 5-benzyl-N-(4-(2-methyl-5-(2-(tetrahydro-2H-pyran-2-yl)ethoxy)phenyl)pyridin-2-yl)-4H-1,2,4-triazole-3-carboxamide] had a pIC50 of at least 7.00. In turn, `Cc1ccc(OCCN2CCCCC2)cc1-c1ccnc(NC(=O)c2nnc(Cc3ccccc3)[nH]2)c1` [Example 228, 5-benzyl-N-(4-(2-methyl-5-(2-(piperidin-1-yl)ethoxy)phenyl)pyridin-2-yl)-4H-1,2,4-triazole-3-carboxamide] had a pIC50 of 6.00 to 7.00.

With `Cc1ccc(OCCN2CCCCC2)cc1-c1ccnc(NC(=O)c2nnc(Cc3ccccc3F)[nH]2)c1` [Example 229, 5-(2-fluorobenzyl)-N-(4-(2-methyl-5-(2-(piperidin-1-yl)ethoxy)phenyl)pyridin-2-yl)-4H-1,2,4-triazole-3-carboxamide], the pIC50 is 6.00 to 7.00. Then `Cc1ccc(OCCN2CCCCC2)cc1-c1ccnc(NC(=O)c2nnc(Cc3ccc(F)cc3F)[nH]2)c1` [Example 230, 5-(2,4-difluorobenzyl)-N-(4-(2-methyl-5-(2-(piperidin-1-yl)ethoxy)phenyl)pyridin-2-yl)-4H-1,2,4-triazole-3-carboxamide], with 6.00 to 7.00; and `Cc1ccc(OCCN2CCCCC2)cc1-c1ccnc(NC(=O)c2nnc(Cc3cc(F)ccc3F)[nH]2)c1` [Example 231, 5-(2,5-difluorobenzyl)-N-(4-(2-methyl-5-(2-(piperidin-1-yl)ethoxy)phenyl)pyridin-2-yl)-4H-1,2,4-triazole-3-carboxamide], with 6.00 to 7.00.

These data come from patent US12435060B2, “Acylamino bridged heterocyclic compound, and composition and application thereof” (BEIJING SCITECH-MQ PHARMACEUTICALS LIMITED, priority 2019, dated 2025).
